Each structure is given as a SMILES string.

The assay has as its system ATF4 translation. In words: ATF4 cell based assay (ATF4 reporter assay, NanoLuc luciferase fused to 5'-UTR of ATF4). Conditions: SH-SY5Y-ATF4-NanoLuc cells challenged with Thapsigargin for 14-18 hours; average of a set of two or more experimental runs; read-out: average ATF4 pathway inhibitory activity (IC50). The source says:
The ATF4 reporter assay measures the effect of Thapsigargin induced cellular stress on ATF4 expression. For this reporter assay, a stable cell line was created by transfecting SH-SY5Y cells with a plasmid containing the NanoLuc® luciferase gene fused to the 5′-UTR of ATF4, under the control of the CMV promoter. The ATF4 5′-UTR contains two open reading frames which mediate the cellular stress-dependent translation of the reporter gene. Clones stably expressing the reporter construct were isolated and selected based on the luminescence response to thapsigargin and inhibition of this signal by test compounds. Briefly, SH-SY5Y-ATF4-NanoLuc cells were challenged with Thapsigargin for 14-18 hours to determine the stress effect with or without test compounds. Cells were propagated in growth media consisting of 90% DMEM F12 (InVitrogen #11320-033), 10% Fetal Bovine Serum (Gibco #10438-026), 5 mM Glutamax (Gibco #35050-061), 5 mM Hopes, (Gibco #15630-080), and 0.5 mg/ml Geneticin (Gibco #10131-027). Cells were prepared for the assay by removing all media from cells, washing the plated cells with phosphate buffered saline, and detached by adding a solution comprised of 10% Tryple express solution (InVitrogen 12604-021) and 90% enzyme-free cell dissociation buffer HANKS base (Gibco 13150-016). The trypsin was deactivated by adding assay media comprised of 90% phenol-red free DMEM F12 (InVitrogen, 11039), 10% Fetal Bovine Serum (Gibco #10438-026), (5 mM Glutamax (Gibco #35050-061), mM Hopes, (Gibco #15630-080), and 0.5 mg/ml Geneticin (Gibco #10131-027). Suspended cells were spun down at 300 g for 5 min, the supernatant was removed and the cell pellet was suspended in warm media (30-37° C.) comprised as above at (1e6 cell/ml). Assay plates were prepared by adding 250 nL of compound stock solution in 100% DMSO to each well, followed by dispensing 20 microliters/well cell suspension to deliver 15-20 k cell/well. Cells were incubated for 1 hour at 37° C. Then, 5 μL of 1.5 μM or 1 μM of Thapsigargin (final concentration: 200-300 nM) was added to each well of cells. Assay plates containing cells were incubated for 14-18 hours at 37° C. The measurement of luciferase produced by the ATF4 constructs was measured as follows. Aliquots of the Nano-Glo reagent (Nano-Glo® Luciferase Assay Substrate, Promega, N113, Nano-Glo® Luciferase Assay Buffer, Promega, N112 (parts of Nano-Glo® Luciferase Assay System, N1150) were brought to room temperature, the substrate and buffer were mixed according to manufacturer's instructions. The cell plates were equilibrated to room temperature. 25microliters/well of the mixed Nano-Glo reagent were dispensed into assay wells and pulse spun to settle contents and the plate was sealed with film. The plates were incubated at room temperature for 1 hour before detecting luminescence on an Envision plate reader.
One may read the IC50 as the concentration needed to halve the response being measured. For the compound `O=C(COc1ccc(Cl)nc1)NCC1CCCN(C(=O)COc2ccc(Cl)cc2)C1` (centres unmarked) [Example 29, N-((1-(2-(4-chlorophenoxy)acetyl)piperidin-3-yl)methyl)-2-((6-chloropyridin-3-yl)oxy)acetamide], the IC50 is over 1000 nM.

Consider `O=C(COc1ccc(Cl)cc1)NC1CCN(CCCOc2ccc(Cl)nc2)CC1` [Example 17, 2-(4-chlorophenoxy)-N-(1-(3-((6-chloropyridin-3-yl)oxy)propyl)piperidin-4-yl)acetamide], for which the IC50 amounted to 76.8 nM.

Take `O=C(COc1ccc(Cl)cc1)NC1CCN(CCCOc2ccc(Cl)cc2)CC1` [Example 2, 2-(4-chlorophenoxy)-N-(1-(3-(4-chlorophenoxy)propyl)piperidin-4-yl)acetamide]: the IC50 was under 4000 nM.

In the case of `O=C(COc1ccc(Cl)nc1)NC1CCN(CCCOc2ccc(Cl)cc2)CC1` [Example 43, N-(1-(3-(4-chlorophenoxy)propyl)piperidin-4-yl)-2-((6-chloropyridin-3-yl)oxy)acetamide], the IC50 turned out to be 58.4 nM.

With `O=C(COc1ccc(Cl)cc1)NC1CCN(CCOc2ccc(Cl)cc2)CC1F` (centres unmarked) [Example 50, 2-(4-chlorophenoxy)-N-(1-(2-(4-chlorophenoxy)ethyl)-3-fluoropiperidin-4-yl)acetamide], the IC50 turned out to be 93.9 nM.

Regarding `O=C(NCCc1ccc(Cl)cc1)C1CCN(C(=O)COc2ccc(Cl)cc2)CC1` [Example 24, N-(4-chlorophenethyl)-1-(2-(4-chlorophenoxy)acetyl)piperidine-4-carboxamide], the IC50 worked out at 201 nM.

`O=C(COc1ccc(Cl)cc1)NC1CCN(C(=O)COc2ccc(Cl)cc2)CC1F` (centres unmarked) [Example 30, 2-(4-chlorophenoxy)-N-(1-(2-(4-chlorophenoxy)acetyl)-3-fluoropiperidin-4-yl)acetamide]: the IC50 came out at 110 nM.

For `O=C(COc1ccc(C2CC2)cc1)NC1CCN(CCCOc2ccc(Cl)cc2)CC1` [Example 56, N-(1-(3-(4-chlorophenoxy)propyl)piperidin-4-yl)-2-(4-cyclopropylphenoxy)acetamide], the IC50 is over 1000 nM.

Take `O=C(COc1ccc(Cl)cc1)NCCC1CCCN(C(=O)COc2ccc(Cl)cc2)C1` (centres unmarked) [Example 28, 2-(4-chlorophenoxy)-N-(2-(1-(2-(4-chlorophenoxy)acetyl)piperidin-3-yl)ethyl)acetamide]: the IC50 was under 1000 nM.

`O=C(COc1ccc(Cl)cc1)NC1CCN(CCCOc2ccc(Cl)cc2)C(C(=O)O)C1` (centres unmarked) [Example 59, 4-(2-(4-chlorophenoxy)acetamido)-1-(3-(4-chlorophenoxy)propyl)piperidine-2-carboxylic acid]: the IC50 came out at 172 nM.

Take `CN(C(=O)COc1ccc(Cl)cc1)C1CCN(CCCOc2ccc(Cl)cc2)CC1` [Example 57, 2-(4-chlorophenoxy)-N-(1-(3-(4-chlorophenoxy)propyl)piperidin-4-yl)-N-methylacetamide]: the IC50 was found to be 61.2 nM.

In the case of `O=C(NCCOc1ccc(Cl)cc1)C1CCN(CCOc2ccc(Cl)cc2)CC1` [Example 39, N,1-bis(2-(4-chlorophenoxy)ethyl)piperidine-4-carboxamide], the IC50 is over 1000 nM.

Regarding `O=C(COc1ccc(Cl)cc1)NC1CCN(C(=O)CCCc2ccc(Cl)cc2)CC1` [Example 37, 2-(4-chlorophenoxy)-N-(1-(4-(4-chlorophenyl)butanoyl)piperidin-4-yl)acetamide], the IC50 is 98.7 nM.

`O=C(COc1ccc(Cl)cc1)NCC1CCN(CCCOc2ccc(Cl)cc2)CC1` [Example 49, 2-(4-chlorophenoxy)-N-((1-(3-(4-chlorophenoxy)propyl)piperidin-4-yl)methyl)acetamide]: the IC50 is over 1000 nM.

For `O=C(NCCOc1ccc(Cl)cc1)C1CCN(CCCOc2ccc(Cl)cc2)CC1` [Example 40, N-(2-(4-chlorophenoxy)ethyl)-1-(3-(4-chlorophenoxy)propyl)piperidine-4-carboxamide], the IC50 was over 1000 nM.

Take `O=C(COc1ccc(Cl)cc1)NC1CCCN(C(=O)COc2ccc(Cl)cc2)C1` (centres unmarked) [Example 27, 2-(4-chlorophenoxy)-N-(1-(2-(4-chlorophenoxy)acetyl)piperidin-3-yl)acetamide]: the IC50 is over 1000 nM.

For the compound `O=C(COc1ccc(Cl)cc1)NC1CCN(CC(O)COc2ccc(Cl)cc2)CC1` (centres unmarked) [Example 11, 2-(4-chlorophenoxy)-N-(1-(3-(4-chlorophenoxy)-2-hydroxypropyl)piperidin-4-yl)acetamide], the IC50 came to 32 nM.

The record behind these values is US11547704B2, “Chemical compounds” (GlaxoSmithKline Intellectual Property Development Limited, priority 2016, dated 2023).
